# ChEMBL document CHEMBL1144775, “Secondary metabolites from three Florida sponges with antidepressant activity” (J Nat Prod, 2008)
# Activity calls are given as the source filed them. The calls are words filed in the database; no cut-off is given here.
# Assays:
# Mus musculus [1] = assay: Antidepressant like activity in ip dosed Swiss Webster mouse assessed as reduction of immobility time by forced-swim test; type: functional, organism-based
# Gallus gallus [2] = assay: Anxiolytic activity in Cockerels assessed as attenuation separation distress vocalization rate during first 5 mins in anxiety phase at 30 mg/kg, ip; type: functional, organism-based; set-up: dose 30 mg/kg
# Gallus gallus [3] = assay: Antidepressant activity in Cockerels assessed as attenuation separation distress vocalization rate in final 30 mins of depression phase at 30 mg/kg, ip; type: functional, organism-based; set-up: dose 30 mg/kg
# Mus musculus [4] = assay: Antidepressant like activity in Swiss Webster mouse assessed as reduction of immobility time at 20 mg/kg, ip after 30 mins by forced-swim test; type: functional, organism-based; set-up: dose 20 mg/kg
# Mus musculus [5] = organism: Mus musculus; assay: Sedative effect in Swiss Webster mouse assessed as locomotor activity; type: organism-based; conditions: in vivo
SMILES,Activity (Mus musculus [1]),Activity (Gallus gallus [2]),Activity (Gallus gallus [3]),Activity (Mus musculus [4]),Activity (Mus musculus [5])
C=C1CCC[C@H]2[C@](C)(CC3=C(O)C(=O)C=C(OC)C3=O)[C@@H](C)CC[C@]12C,inactive,,,,
CN(C)CCc1c[nH]c2cc(Br)c(Br)cc12,,Active,Active,Active,
CN(C)CCc1c[nH]c2ccc(Br)cc12,inactive,,,,Active
CN1C(=N)N(C)/C(=C/c2c[nH]c3ccccc23)C1=O,inactive,,,,
